Test results: US10501482B2, “Compounds for treating spinal muscular atrophy” (Hoffmann-La Roche Inc., priority 2013, dated 2019)
Where a name gives a salt, the structure may show the parent alone.

Assays:
[1] = tested on: full length SMN2 minigene mRNA (FL SMN2mini) in HEK293H cells stably transfected with the SMN2-A minigene construct; test: SMN2 minigene mRNA splicing RT-qPCR assay in cultured cells; format: cell-based; conditions: Homo sapiens, HEK293-H, 24 hours, 7-point concentration curve, concentration giving 1.5-fold FL SMN2mini mRNA vs vehicle, read-out: EC1.5x minigene (EC1.5x concentration for production of full length SMN2 minigene mRNA)
Procedure: The reverse transcription-quantitative PCR-based (RT-qPCR) assay is used to quantify the level of the full length SMN2 minigene (referred to herein by the term “FL SMN2mini”) mRNA containing SMN2 exon 7 in a HEK293H cell line stably transfected with said minigene and treated with a test compound.
The SMN2-A minigene construct was prepared as described in International Patent Application WO2009/151546A1 page 145 paragraph [00400] to page 147 paragraph [00412](incl. FIG. 1 and FIG. 3 therein).
HEK293H cells stably transfected with the SMN2-A minigene construct (10,000 cells/well) are seeded in 200 μL of cell culture medium (DMEM plus 10% FBS, with 200 μg/mL hygromycin) in 96-well flat-bottom plates and the plate is immediately swirled to ensure proper dispersal of cells and the formation of an even monolayer of cells. Cells are allowed to attach for 6 hours. […] A solution of test compound (1 μL, 200× in DMSO) is added to each cell-containing well and the plate is incubated for 24 hours in a cell culture incubator (37° C., 5% CO2, 100% relative humidity). 2 replicates are prepared for each test compound concentration. The cells are then lysed in the Cells-To-Ct lysis buffer and the lysate is stored at −80° C.
Full length SMN2-A minigene and GAPDH mRNA are quantified using the primers and probes referenced in Table 1. Primer SMN Forward A (SEQ ID NO.1) hybridizes to a nucleotide sequence in exon 7 (nucleotide 22 to nucleotide 40), primer SMN Reverse A (SEQ ID NO.2) hybridizes to a nucleotide sequence in the coding sequence of Firefly luciferase, SMN Probe A (SEQ ID NO.3) hybridizes to a nucleotide sequence in exon 7 (nucleotide 50 to nucleotide 54) and exon 8 (nucleotide 1 to nucleotide 21). The combination of these three oligonucleotides detects only SMN1 or SMN2 minigenes (RT-qPCR) and will not detect endogenous SMN1 or SMN2 genes.
The SMN forward and reverse primers are used at final concentrations of 0.4 μM. The SMN probe is used at a final concentration of 0.15 μM. The GAPDH primers are used at final concentrations of 0.2 μM and the probe at 0.15 μM.
The SMN2-minigene GAPDH mix (15 μL total volume) is prepared by combining 7.5 μL of 2×RT-PCR buffer, 0.4 μL of 25×RT-PCR enzyme mix, 0.75 μL of 20×GAPDH primer-probe mix, 4.0075 μL of water, 2 μL of 10-fold diluted cell lysate, 0.06 μL of 100 μM SMN forward primer, 0.06 μL of 100 μM SMN reverse primer, and 0.225 μL of 100 μM SMN probe.
PCR is carried out at the following temperatures for the indicated time: Step 1: 48° C. (15 min); Step 2: 95° C. (10 min); Step 3: 95° C. (15 sec); Step 4: 60° C. (1 min); then repeat Steps 3 and 4 for a total of 40 cycles.
Each reaction mixture contains both SMN2-A minigene and GAPDH primers/probe sets (multiplex design), allowing simultaneous measurement of the levels of two transcripts.
The increase in the abundance of the FL SMN2mini mRNA relative to that in cells treated with vehicle control is determined from real-time PCR data using a modified ΔΔCt method (as described in Livak and Schmittgen, Methods, 2001, 25:402-8). The amplification efficiency E is calculated from the slope of the amplification curve for FL SMN2mini and GAPDH individually. The abundance of FL SMN2mini and GAPDH mRNA are then calculated as (1+E)^−Ct, where Ct is the threshold value for each amplicon. The abundance of FL SMN2mini mRNA is normalized to GAPDH mRNA abundance. The normalized FL SMN2mini mRNA abundance from test compound-treated samples is then divided by normalized FL SMN2mini mRNA abundance from vehicle-treated cells to determine the level of FL SMN2mini mRNA relative to vehicle control.
Table 2 provides EC1.5x concentrations for production of full length SMN2 minigene mRNA that was obtained from the 7-point concentration data generated according to the above procedure for particular compounds of the present invention.

[2] = tested on: SMN protein; test: SMN protein assay (HTRF) in cultured SMA patient fibroblast cells; format: cell-based; conditions: SMA Type 1 human fibroblasts GM03813, 48 hours; for EC1.5x SMN protein (EC1.5x concentration for SMN protein expression): 7-point concentration curve, concentration giving 1.5 times SMN protein vs vehicle; for max. fold increase (maximum fold increase of SMN protein): 7-point concentration data, fold vs vehicle control
Procedure: The SMN HTRF (homogeneous time resolved fluorescence) assay is used to quantify the level of SMN protein in SMA patient fibroblast cells treated with test compounds.
Cells are thawed and cultured in DMEM-10% FBS for 72 hours. Cells are trypsinized, counted and re-suspended to a concentration of 25,000 cells/mL in DMEM-10% FBS. The cell suspensions are plated at 5,000 cells per well in a 96 well microtiter plate and incubated for 3 to 5 hours. […] 1 μL of test compound solution is transferred to cell-containing wells and cells are incubated for 48 hours in a cell culture incubator (37° C., 5% CO2, 100% relative humidity). Triplicate samples are set up for each test compound concentration. After 48 hours, the supernatant is removed from the wells and 25 μL of the RIPA lysis buffer, containing protease inhibitors, is added to the wells and incubated with shaking at room temperature for 1 hour. 25 μL of the diluent is added and then 35 μL of the resulting lysate is transferred to a 384-well plate, where each well contains 5 μL of the antibody solution (1:100 dilution of anti-SMN d2 and anti-SMN kryptate in SMN reconstitution buffer). The plate is centrifuged for 1 minute to bring the solution to the bottom of the wells, then incubated overnight at room temperature. Fluorescence for each well of the plate at 665 nm and 620 nm is measured on an EnVision multilabel plate reader (Perkin-Elmer).
The normalized fluorescence signal is calculated for each sample, Blank and vehicle control well by dividing the signal at 665 nm by the signal at 620 nm. Normalizing the signal accounts for possible fluorescence quenching due to the matrix effect of the lysate. The ΔF value (a measurement of SMN protein abundance as a percent value) for each sample well is calculated by subtracting the normalized average fluorescence for the Blank control wells from the normalized fluorescence for each sample well, then dividing this difference by the normalized average fluorescence for the Blank control wells and multiplying the resulting value by 100. The ΔF value for each sample well represents the SMN protein abundance from test compound-treated samples. The ΔF value for each sample well is divided by the ΔF value for the vehicle control wells to calculate the fold increase in SMN protein abundance relative to the vehicle control. Table 3 provides EC1.5x concentrations for SMN protein expression that was obtained from the 7-point concentration data generated according to the above procedure for particular compounds of the present invention.
Table 4 provides the maximum fold increase of SMN protein that was obtained from the 7-point concentration data generated according to the above procedure for particular compounds of the present invention

Cc1cn2cc(NC(=O)c3ccc(C4CCN(C)CC4)nc3)cc(F)c2n1 [Example 80, N-(8-fluoro-2-methylimidazo[1,2-a]pyridin-6-yl)-6-(1-methylpiperidin-4-yl)nicotinamide]
EC (1.5-fold) [1]: 0.115 µM | EC1.5x SMN protein (EC1.5x concentration for SMN protein expression) [2]: 0.52 µM | max. fold increase (maximum fold increase of SMN protein) [2]: 1.5928

Cc1nc2c(F)cc(NC(=O)c3ccc(N4CCN5CCC[C@H]5C4)cc3F)cc2o1 [Example 33, (S)-2-Fluoro-N-(4-fluoro-2-methyl-benzooxazol-6-yl)-4-(S)-hexahydro-pyrrolo[1,2-a]-pyrazin-2-yl-benzamide]
EC1.5x SMN protein (EC1.5x concentration for SMN protein expression) [2]: 0.5703 µM | max. fold increase (maximum fold increase of SMN protein) [2]: 1.7541

Cc1cn2cc(NC(=O)c3ccc(N4CCNCC4)cn3)nc2c(C)n1 [Example 11, N-(6,8-dimethyl-imidazo[1,2-a]-pyrazin-2-yl)-5-(piperazin-1-yl)picolinamide]
EC (1.5-fold) [1]: 0.297 µM | EC1.5x SMN protein (EC1.5x concentration for SMN protein expression) [2]: 0.321 µM | max. fold increase (maximum fold increase of SMN protein) [2]: 1.7143

COc1nc(N2CCNCC2)ccc1C(=O)Nc1cc(F)c2nc(C)cn2c1 [Example 64, N-(8-fluoro-2-methylimidazo[1,2-a]pyridin-6-yl)-2-methoxy-6-(piperazin-1-yl)nicotinamide]
EC (1.5-fold) [1]: 0.0291 µM | EC1.5x SMN protein (EC1.5x concentration for SMN protein expression) [2]: 0.1192 µM | max. fold increase (maximum fold increase of SMN protein) [2]: 1.7581

COc1nc(N2CCNC(C)C2)ccc1C(=O)Nc1cc(F)c2nc(C)cn2c1 (racemic) [Example 74, rac-N-(8-fluoro-2-methylimidazo[1,2-a]pyridin-6-yl)-2-methoxy-6-(3-methylpiperazin-1-yl)nicotinamide]
EC (1.5-fold) [1]: 0.0161 µM | EC1.5x SMN protein (EC1.5x concentration for SMN protein expression) [2]: 0.1524 µM | max. fold increase (maximum fold increase of SMN protein) [2]: 1.709

Cc1cn2cc(NC(=O)c3ccc(N4CCNC(C)C4)cn3)cc(F)c2n1 (racemic) [Example 43, rac-N-(8-fluoro-2-methylimidazo[1,2-a]pyridin-6-yl)-5-(3-methylpiperazin-1-yl)picolinamide dihydrochloride]
EC (1.5-fold) [1]: 0.057 µM | EC1.5x SMN protein (EC1.5x concentration for SMN protein expression) [2]: 0.104 µM | max. fold increase (maximum fold increase of SMN protein) [2]: 1.7873

Cc1cn2cc(NC(=O)c3cnc(N4CCNCC4)c(C)c3)cc(F)c2n1 [Example 67, N-(8-fluoro-2-methylimidazo[1,2-a]pyridin-6-yl)-5-methyl-6-(piperazin-1-yl)nicotinamide]
EC (1.5-fold) [1]: 0.318 µM | EC1.5x SMN protein (EC1.5x concentration for SMN protein expression) [2]: 0.866 µM | max. fold increase (maximum fold increase of SMN protein) [2]: 1.6552

Cc1cn2cc(NC(=O)c3ccc(C4=CCNCC4)cc3F)ccc2n1 [Example 60, 2-fluoro-N-(2-methylimidazo[1,2-a]pyridin-6-yl)-4-(1,2,3,6-tetrahydro-pyridin-4-yl)-benzamide hydrochloride]
EC (1.5-fold) [1]: 0.0428 µM | EC1.5x SMN protein (EC1.5x concentration for SMN protein expression) [2]: 0.107 µM | max. fold increase (maximum fold increase of SMN protein) [2]: 1.7375

Cc1cn2cc(NC(=O)c3ccc(N4CCN(C)CC4)nc3)nc2c(C)n1 [Example 6, N-(6,8-dimethyl-imidazo[1,2-a]-pyrazin-2-yl)-6-(4-methyl-piperazin-1-yl)nicotinarnide]
EC (1.5-fold) [1]: 0.233 µM | EC1.5x SMN protein (EC1.5x concentration for SMN protein expression) [2]: 0.5305 µM | max. fold increase (maximum fold increase of SMN protein) [2]: 1.8047

Cc1cn2cc(NC(=O)c3ccc(N4CCNC(C)C4)cn3)ccc2n1 (racemic) [Example 17, rac-N-(2-methyl-imidazo[1,2-a]-pyridin-6-yl)-5-(3-methyl-piperazin-1-yl)-picolinamide]
EC (1.5-fold) [1]: 0.233 µM | EC1.5x SMN protein (EC1.5x concentration for SMN protein expression) [2]: 0.5022 µM | max. fold increase (maximum fold increase of SMN protein) [2]: 1.6966

Cc1cn2cc(NC(=O)c3cc(F)c(N4CCNC(C)C4)cc3F)cc(F)c2n1 (racemic) [Example 46, rac-2,5-difluoro-N-(8-fluoro-2-methyl-imidazo[1,2-a]-pyridin-6-yl)-4-(3-methylpiperazin-1-yl)benzamide hydrochloride]
EC (1.5-fold) [1]: 0.0887 µM | EC1.5x SMN protein (EC1.5x concentration for SMN protein expression) [2]: 0.3584 µM | max. fold increase (maximum fold increase of SMN protein) [2]: 1.5572

Cc1cn2cc(NC(=O)c3ccc(N4CCNC(C)C4)cc3F)nc2c(C)n1 (racemic) [Example 5, rac-N-(6,8-dimethyl-imidazo[1,2-a]-pyrazin-2-yl)-2-fluoro-4-(3-methyl-piperazin-1-yl)-benzamide]
EC (1.5-fold) [1]: 0.0612 µM | EC1.5x SMN protein (EC1.5x concentration for SMN protein expression) [2]: 0.107 µM | max. fold increase (maximum fold increase of SMN protein) [2]: 1.7757

Cc1cn2cc(NC(=O)c3ccc(N4CCNCC4)nc3)cc(F)c2n1 [Example 41, N-(8-tluoro-2-methylimidazo-[1,2-a]pyridin-6-yl)-6-(piperazin-1-yl)nicotinamide dihydrochloride]
EC1.5x SMN protein (EC1.5x concentration for SMN protein expression) [2]: 0.0508 µM | max. fold increase (maximum fold increase of SMN protein) [2]: 1.7973

CCOc1cc(N2CCNCC2)ncc1C(=O)Nc1cc(F)c2nc(C)cn2c1 [Example 70, 4-ethoxy-N-(8-fluoro-2-methylimidazo[1,2-a]pyridin-6-yl)-6-(piperazin-1-yl)nicotinamide]
EC1.5x SMN protein (EC1.5x concentration for SMN protein expression) [2]: 0.0187 µM | max. fold increase (maximum fold increase of SMN protein) [2]: 1.933
